Measurements from US7022732B2, “Propanolamine derivative having 1, 4-benzodioxane ring” (Nisshin Pharma Inc., priority 2001, dated 2006).

Target: T1, human β3 adrenergic receptor (Homo sapiens, UniProt P13945)
T1 construct: expressed in transfected cells; host or cells: CHO cells (clone G4-I, kept under Geneticin selection)
Test: cAMP production in G4-I cells, stimulating activity of human β3 adrenergic receptor (cAMP EIA)
Format: cell-based
Details: cAMP production relative to isoproterenol maximum, CHO cells (G4-I) expressing human β3 receptor
Procedure: Representative compounds of the invention were assayed for their stimulating activity of human β3 adrenergic receptor. In the tests, there was used G4-I cloned with CHO cells expressing human β3 adrenergic receptor genes. A cAMP EIA kit for use was available from Amersham Farmacia.
G4-I was incubated under the atmosphere of 5% CO2 at 37° C. in a Han's F12 Nutrient Mixture medium containing 10% fetal calf serum, penicillin 100 U/mL, streptomycin 100 μg/mL, amphotericin B 25 μg/mL and Geneticin 400 μg/mL. When the reaction for cAMP production was carried out, frozen cells stocked were incubated for 3 days and then treated with trypsin to prepare a cell suspension. The cell suspension was diluted to 2×10^5 cells/mL with the medium. Then 1 ml each of the diluted suspension was dispensed into a 12-well plate dish.
The cells cultured for 24 hours were used to carry out the cAMP production reaction.
The culture medium was removed from the cells incubated on the 12-well plate dish. The cells were washed twice with 1 mL of Wash Buffer previously warmed to 37° C. and then 0.9 mL of Reaction Buffer was added. Cultivation was carried out on a water bath at 37° C. for 5 minutes and then 0.1 mL of an aqueous solution of the test compound or isoproterenol was added thereto. Reaction was further allowed to take place at 37° C. for 30 minutes. The reaction solution was taken out and then washed twice with 2 mL of D-PBS(-) followed by addition of 1 mL of the Extraction Buffer. The extraction procedure was performed using a plate mixer at 4° C. for 1 hour. The extract was stored at −20° C.
The cell extract frozen at −20° C. was thawed at 4° C. The cAMP of the extract in each well was assayed by means of a cAMP-EIA kit manufactured by Amersham Farmacia. Assay was performed in accordance with the manual attached to the kit. Adsorbance in a 96-well plate was determined using a microplate reader (Model Spectra MAX 250) manufactured by Molecular Device.
The protein amount of the above cell extract was assayed according to the dye-binding method using a CBB solution for quantitative determination of protein (available from Bio-Rad). Bovine serum albumin was used as a protein standard, and absorbance was determined using the above microplate reader (Model Spectra MAX 250) manufactured by Molecular Device.
Determination of cAMP and protein amounts was carried out in duplicate and mean values were adopted as measured values. The cAMP production amount of each sample was represented in terms of a numerical value of the cAMP amount (pmol) divided by cell protein amount (mg) (pmol/mg protein). […] For each sample, cAMP production amount was calculated and a relative cAMP production amount to the maximum cAMP production amount of isoproterenol (% of isoproterenol Max) was determined.

T1 sequence (P13945 whole entry): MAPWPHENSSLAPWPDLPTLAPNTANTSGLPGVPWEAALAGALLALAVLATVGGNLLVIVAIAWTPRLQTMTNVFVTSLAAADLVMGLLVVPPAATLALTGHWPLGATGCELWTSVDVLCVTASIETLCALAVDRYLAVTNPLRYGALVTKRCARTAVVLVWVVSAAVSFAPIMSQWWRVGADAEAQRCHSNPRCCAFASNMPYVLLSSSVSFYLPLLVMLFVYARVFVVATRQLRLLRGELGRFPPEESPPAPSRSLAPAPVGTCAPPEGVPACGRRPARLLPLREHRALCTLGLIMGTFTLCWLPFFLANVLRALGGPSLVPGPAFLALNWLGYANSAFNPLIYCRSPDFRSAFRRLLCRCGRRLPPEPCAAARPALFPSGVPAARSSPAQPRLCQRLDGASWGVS

SMILES	Intrinsic Activity (% of ISP) (test compound 1 μM)	Intrinsic Activity (% of ISP) (test compound 10 μM)
C[C@H](Cc1ccc2c(c1)OC[C@H](C(=O)O)O2)NC[C@H](O)COc1ccc(O)c(NS(C)(=O)=O)c1 [Example 2, 6-[2-(R)-[2-(S)-Hydroxy-3-(4-hydroxy-3-methanesulfonamidophenoxy)propylamino]propyl]-2,3-dihydro-1,4-benzodioxine-2-(R)-carboxylic acid]	76 % of ISP	
CS(=O)(=O)Nc1cc(OC[C@@H](O)CNCCc2ccc3c(c2)OC[C@H](C(=O)O)O3)ccc1O [Example 4, 6-[2-[2-(S)-Hydroxy-3-(4-hydroxy-3-methanesulfonamido-phenoxy]propylamino]ethyl]-2,3-dihydro-1,4-benzodioxine-2-(R)-carboxylic acid]	98 % of ISP	
C[C@H](Cc1ccc2c(c1)OC[C@H](C(=O)O)O2)NC[C@H](O)COc1ccc(O)cc1 [Example 12, 6-[2-(R)-[2-(S)-Hydroxy-3-(4-hydroxyphenoxy)propylamino]-propyl]-2,3-dihydro-1,4-benzodioxine-2-(R)-carboxylic acid]		73 % of ISP
COc1cc(O)ccc1OC[C@@H](O)CN[C@H](C)Cc1ccc2c(c1)OC[C@H](C(=O)O)O2 [Example 16, 6-[2-(R)-[2-(S)-Hydroxy-3-(4-hydroxy-2-methoxyphenoxy)-propylamino]propyl]-2,3-dihydro-1,4-benzodioxine-2-(R)-carboxylic acid]	61 % of ISP	
